Among the data in US9938258B2 (Karyopharm Therapeutics Inc., priority 2012, dated 2018) are IC50 values, retold here.

Each structure is given as a SMILES string. Like-named read-outs stand apart in the source and are kept apart here.

One assay relates to MS751 cells. Nature of the assay: MTT cell proliferation assay, MS751. The note with it: eight concentrations 1 nM to 30 μM, incubation approximately 64-72 hours, read-out: MTT Assay IC50, MS751. It counts as cell-based, human. As for the experimental part:
(§1) The MTT cell proliferation assay was used to study the cytotoxic properties of the compounds. The assay was performed according to the method described by Roche Molecular Biochemicals, with minor modifications. The assay is based on the cleavage of the tetrazolium salt, MTT, in the presence of an electron-coupling reagent. The water-insoluble formazan salt produced must be solubilized in an additional step. Cells grown in a 96-well tissue culture plate were incubated with the MTT solution for approximately 4 hours. After this incubation period, a water-insoluble formazan dye formed. After solubilization, the formazan dye was quantitated using a scanning multi-well spectrophotometer (ELISA reader). […] The cells were seeded at 5,000-10,000 cells in each well of 96-well plate in 100 μL of fresh culture medium and were allowed to attach overnight. The stock solutions of the compounds were diluted in 100 μL cell culture medium to obtain eight concentrations of each test compound, ranging from 1 nM to 30 μM. […] All optical densities were measured at 490 nm using a Vmax Kinetic Microplate Reader (Molecular Devices). In most cases, the assay was performed in duplicate and the results were presented as a mean percent inhibition to the negative control±SE. The following formula was used to calculate the percent of inhibition: Inhibition (%)=(1-(ODo/OD)) ×100.
(§2) The compounds were tested against MS751, Z138 and 3T3 cells. The MS751 cell line is derived from a metastasis to lymph node of human cervix from a patient diagnosed with squameous cell carcinoma of the cervix. The Z138 cell line is a mature B-cell acute lymphoblastic leukemia cell line derived from a patient with chronic lumphocytic leukemia. 3T3 cells are standard fibroblast cells; they were originally isolated from Swiss mouse embryo tissue.

For the next assay, the system named is Z138 cells. Put plainly: MTT cell proliferation assay, Z138. It counts as cell-based. The note with it: eight concentrations 1 nM to 30 μM, incubation approximately 64-72 hours, read-out: MTT Assay IC50, Z138. As to the method: as §1, §2
A further assay concerns 3T3 cells. Nature of the assay: MTT cell proliferation assay, 3T3. It counts as cell-based, mouse. Conditions: eight concentrations 1 nM to 30 μM, incubation approximately 64-72 hours, read-out: MTT Assay IC50, 3T3. As for the experimental part:
as §1, §2
(Formazan colour is commonly taken as a measure of viable cells.)

Where [1] appears, read: Homo sapiens, MS751, MS751 cells.
Setting [2] is: Homo sapiens, Z-138, Z138 cells.
[3] abbreviates: Mus musculus, NIH3T3, 3T3 cells.

As to `CC(=O)c1ccc(-c2cc(Cl)c3c(c2)CC(CNC(=O)/C=C/c2cccnc2)O3)s1` (stereo not drawn) [Compound 122, (E)-N-((5-(5-acetylthiophen-2-yl)-7-chloro-2,3-dihydrobenzofuran-2-yl)methyl)-3-(pyridin-3-yl)acrylamide], the IC50 in the assay with MS751 cells (MS751 cells), with Z138 cells (Z138 cells) and with 3T3 cells (3T3 cells) was 0.1 to 5 µM each time.
For the compound `CC(=O)c1ccc(-c2cc(Cl)c3c(c2)CC(CN(C)C(=O)/C=C/c2cccnc2)O3)s1` (stereo not drawn) [Compound 125, (E)-N-((5-(5-acetylthiophen-2-yl)-7-chloro-2,3-dihydrobenzofuran-2-yl)methyl)-N-methyl-3-(pyridin-3-yl)acrylamide], the 50% inhibitory concentration (IC50) with MS751 cells (setting [1]), with Z138 cells (setting [2]) and in the assay with 3T3 cells (setting [3]) was 5 to 30 µM throughout.
For `CCOC(=O)c1ccc(-c2cc(Cl)c3c(c2)CC(CNC(=O)/C=C/c2cccnc2)O3)cc1` (stereo not drawn) [Compound 128, (E)-ethyl 4-(7-chloro-2-((3-(pyridin-3-yl)acrylamido)methyl)-2,3-dihydrobenzofuran-5-yl)benzoate], the half-inhibitory concentration (IC50) (as a rule, the concentration needed to halve the response being measured) was 0.1 to 5 µM in the assay on MS751 cells (setting [1]), under 0.1 µM with Z138 cells (setting [2]) and 0.1 to 5 µM with 3T3 cells (setting [3]).
For the compound `O=C(/C=C/c1cccnc1)NCC1Cc2cc(-c3ccc(C(=O)O)cc3)cc(Cl)c2O1` (stereo not drawn) [Compound 129, (E)-4-(7-chloro-2-((3-(pyridin-3-yl)acrylamido)methyl)-2,3-dihydrobenzofuran-5-yl)benzoic acid], the half-maximal inhibitory concentration (IC50) with MS751 cells (setting [1]), with Z138 cells (setting [2]) and in the assay on 3T3 cells (setting [3]) was 5 to 30 µM throughout.
Regarding `CC(=O)c1ccc(-c2cc(C)c3c(c2)CC(CNC(=O)/C=C/c2cccnc2)O3)s1` (stereo not drawn) [Compound 138, (E)-N-((5-(5-acetylthiophen-2-yl)-7-methyl-2,3-dihydrobenzofuran-2-yl)methyl)-3-(pyridin-3-yl)acrylamide], the 50% inhibitory concentration (IC50) in the assay on MS751 cells (setting [1]) was under 0.1 µM; with Z138 cells (setting [2]) it was under 0.1 µM; in the assay with 3T3 cells (setting [3]) it was 0.1 to 5 µM.
As for `CC(=O)c1ccc(-c2cc(Cl)c3c(c2)CC(CNC(=O)/C=C/c2ccc(C)nc2)O3)s1` (stereo not drawn) [Compound 146, (E)-N-((5-(5-acetylthiophen-2-yl)-7-chloro-2,3-dihydrobenzofuran-2-yl)methyl)-3-(6-methylpyridin-3-yl)acrylamide], the values for the IC50 with MS751 cells (setting [1]), with Z138 cells (setting [2]) and in the assay on 3T3 cells (setting [3]) were 5 to 30 µM, over 30 µM and over 30 µM, respectively.
Take `CC(=O)c1ccc(-c2cc(Cl)c3c(c2)CC(CNC(=O)/C=C/c2c(C)noc2C)O3)s1` (stereo not drawn) [Compound 147, (E)-N-((5-(5-acetylthiophen-2-yl)-7-chloro-2,3-dihydrobenzofuran-2-yl)methyl)-3-(3,5-dimethylisoxazol-4-yl)acrylamide]: the IC50 with MS751 cells (setting [1]) was 0.1 to 5 µM; with Z138 cells (setting [2]), 0.1 to 5 µM; with 3T3 cells (setting [3]), over 30 µM.
In the case of `CC(=O)c1ccc(-c2cc(Cl)c3c(c2)CC(CNC(=O)/C=C/c2cnc(C)s2)O3)s1` (stereo not drawn) [Compound 148, (E)-N-((5-(5-acetylthiophen-2-yl)-7-chloro-2,3-dihydrobenzofuran-2-yl)methyl)-3-(2-methylthiazol-5-yl)acrylamide], the IC50 was 5 to 30 µM in the assay with MS751 cells (setting [1]), over 30 µM in the assay with Z138 cells (setting [2]) and over 30 µM in the assay on 3T3 cells (setting [3]).
For the compound `CC(=O)c1ccc(-c2cc(Cl)c3c(c2)CC(CNC(=O)/C=C/c2cnn(C)c2)O3)s1` (stereo not drawn) [Compound 149, (E)-N-((5-(5-acetylthiophen-2-yl)-7-chloro-2,3-dihydrobenzofuran-2-yl)methyl)-3-(1-methyl-1H-pyrazol-4-yl)acrylamide], the IC50 in the assay with MS751 cells (setting [1]), in the assay on Z138 cells (setting [2]) and in the assay with 3T3 cells (setting [3]) was over 30 µM throughout.
Consider `CC(=O)c1ccc(-c2cc(Cl)c3c(c2)CC(CNC(=O)/C=C/c2ccc(C)o2)O3)s1` (stereo not drawn) [Compound 150, (E)-N-((5-(5-acetylthiophen-2-yl)-7-chloro-2,3-dihydrobenzofuran-2-yl)methyl)-3-(5-methylfuran-2-yl)acrylamide], for which the concentration for half-maximal inhibition (IC50) in the assay with MS751 cells (setting [1]), in the assay with Z138 cells (setting [2]) and with 3T3 cells (setting [3]) was over 30 µM in each case.
In the case of `CC(=O)c1ccc(-c2cc(Cl)c3c(c2)CC(CNC(=O)/C=C/c2cnc4ccccc4n2)O3)s1` (stereo not drawn) [Compound 151, (E)-N-((5-(5-acetylthiophen-2-yl)-7-chloro-2,3-dihydrobenzofuran-2-yl)methyl)-3-(quinoxalin-2-yl)acrylamide], the IC50 in the assay on MS751 cells (setting [1]), with Z138 cells (setting [2]) and in the assay on 3T3 cells (setting [3]) was over 30 µM each time.
On to `CC(=O)c1ccc(-c2cc(Cl)c3c(c2)CC(CNC(=O)/C=C/c2sccc2C)O3)s1` (stereo not drawn) [Compound 152, (E)-N-((5-(5-acetylthiophen-2-yl)-7-chloro-2,3-dihydrobenzofuran-2-yl)methyl)-3-(3-methylthiophen-2-yl)acrylamide], for which the IC50 in the assay on MS751 cells (setting [1]), in the assay with Z138 cells (setting [2]) and in the assay on 3T3 cells (setting [3]) was over 30 µM in each case.
As for `CC(=O)c1ccc(-c2cc(Cl)c3c(c2)CC(CNC(=O)/C=C/c2cc[nH]c2)O3)s1` (stereo not drawn) [Compound 153, (E)-N-((5-(5-acetylthiophen-2-yl)-7-chloro-2,3-dihydrobenzofuran-2-yl)methyl)-3-(1H-pyrrol-3-yl)acrylamide], the IC50 with MS751 cells (setting [1]), with Z138 cells (setting [2]) and with 3T3 cells (setting [3]) was over 30 µM throughout.
On to `CC(=O)c1ccc(-c2cc(Cl)c3c(c2)CC(CNC(=O)/C=C/c2c(C)nn(CC(C)C)c2Cl)O3)s1` (stereo not drawn) [Compound 154, (E)-N-((5-(5-acetylthiophen-2-yl)-7-chloro-2,3-dihydrobenzofuran-2-yl)methyl)-3-(5-chloro-1-isobutyl-3-methyl-1H-pyrazol-4-yl)acrylamide], for which the IC50 in the assay on MS751 cells (setting [1]), in the assay with Z138 cells (setting [2]) and with 3T3 cells (setting [3]) was over 30 µM in each case.
As for `CCn1cc(/C=C/C(=O)NCC2Cc3cc(-c4ccc(C(C)=O)s4)cc(Cl)c3O2)cn1` (stereo not drawn) [Compound 155, (E)-N-((5-(5-acetylthiophen-2-yl)-7-chloro-2,3-dihydrobenzofuran-2-yl)methyl)-3-(1-ethyl-1H-pyrazol-4-yl)acrylamide], the 50% inhibitory concentration (IC50) with MS751 cells (setting [1]), in the assay with Z138 cells (setting [2]) and with 3T3 cells (setting [3]) was over 30 µM each time.
Consider `CC(=O)c1ccc(-c2cc(Cl)c3c(c2)CC(CNC(=O)/C=C/c2cn(C)nc2C)O3)s1` (stereo not drawn) [Compound 156, (E)-N-((5-(5-acetylthiophen-2-yl)-7-chloro-2,3-dihydrobenzofuran-2-yl)methyl)-3-(1,3-dimethyl-1H-pyrazol-4-yl)acrylamide], for which the IC50 with MS751 cells (setting [1]), with Z138 cells (setting [2]) and in the assay on 3T3 cells (setting [3]) was over 30 µM in each case.
Take `CC(=O)c1ccc(-c2cc(Cl)c3c(c2)CC(CNC(=O)/C=C/c2cnn(C)c2C)O3)s1` (stereo not drawn) [Compound 157, (E)-N-((5-(5-acetylthiophen-2-yl)-7-chloro-2,3-dihydrobenzofuran-2-yl)methyl)-3-(1,5-dimethyl-1H-pyrazol-4-yl)acrylamide]: the IC50 in the assay on MS751 cells (setting [1]), in the assay on Z138 cells (setting [2]) and in the assay on 3T3 cells (setting [3]) was over 30 µM in each case.
Turning to `CC(=O)c1ccc(-c2cc(Cl)c3c(c2)CC(CNC(=O)/C=C/c2csc(C)n2)O3)s1` (stereo not drawn) [Compound 159, (E)-N-((5-(5-acetylthiophen-2-yl)-7-chloro-2,3-dihydrobenzofuran-2-yl)methyl)-3-(2-methylthiazol-4-yl)acrylamide], the IC50 with MS751 cells (setting [1]), in the assay with Z138 cells (setting [2]) and in the assay on 3T3 cells (setting [3]) was over 30 µM throughout.
